Measurements as given in PMC9095466 (Nature, 2022).
“And” between values parts separate entries of the source, which are not always exact repeats. Identical values can stand only once. Like-named read-outs stand apart in the source and are kept apart here.

Experiments:
[1] = test system: SARS-CoV-2 (USA-WA1/2020, lineage A); format: in vivo, K18-hACE2 mice
[2] = test system: SARS-CoV-2 P.1 (Gamma); experiment: microbe, parasite or virus in culture; format: cell-based; conditions: Brazil
[3] = test system: SARS-CoV-2 B.1.617.2 (Delta); format: in vivo, K18-hACE2 mice; conditions: for PFU/g / PFU/mL: lung, plaque assay, N-0385 12h PI, individual mice
[4] = test system: SARS-CoV-2 (USA-WA1/2020, lineage A); experiment: K18-hACE2 mouse model of SARS-CoV-2, H&E histopathology of lung and brain; conditions: 8-day regimen
Protocol: (§1) For histological examination, mouse lungs and brains were collected directly after euthanasia and placed in 10% formalin for more than 72 h, after which tissues were embedded in paraffin. Tissue sections (4 μm) were analysed after staining with H&E and scored blinded by an anatomic pathologist. For lung, scores were applied based on the percentage of each tissue type (alveolus, vessels and so on) affected using the following criteria: (0) normal; (1) less than 10% affected; (2) 10–25% affected; (3) 26–50% affected; and (4) more than 50% affected[64]. Assessment of lung pathology in K18-hACE2 mice infected with the SARS-CoV-2 B.1.617.2 (Delta) VOC after single-dose treatment was performed on IHC sections counterstained with haematoxylin. For brains, histological scoring was assessed for perivascular inflammation using the most severely affected vessel and the following criteria: (0) no perivascular inflammation; (1) incomplete cuff one cell layer thick; (2) complete cuff one cell layer thick; (3) complete cuff two to three cells thick; and (4) complete cuff four or more cells thick. Necrotic cells in the neuroparenchyma were assessed per 0.237 mm^2 field using the most severely affected area and the following criteria: (0) no necrotic cells; (1) rare individual necrotic cells; (2) fewer than 10 necrotic cells; (3) 11 to 25 necrotic cells; (4) 26 to 50 necrotic cells; and (5) greater than 50 cells.

[5] = test system: SARS-CoV-2 B.1.351 (Beta); experiment: microbe, parasite or virus in culture; format: cell-based; conditions: SA
[6] = test system: SARS-CoV-2 (VIDO); experiment: microbe, parasite or virus in culture; format: cell-based; conditions: colonoids pretreated 3 h with 100 nM, infected 3 days, vs DMSO-treated
[7] = test system: SARS-CoV-2 B.1.617.2 (Delta); experiment: K18-hACE2 mice infected with Delta VOC, lung pathology scores on IHC sections; conditions: individual mice, single dose 12 hpi, 3 DPI
Protocol: as §1

[8] = females, Figure 5 Panel F, individual animals
[9] = individual mice, tissue at death or end-point

## CS(=O)(=O)NC(CCC(N)=O)C(=O)NC(Cc1ccccc1)C(=O)NC(CCCNC(=N)N)C(=O)c1nc2ccccc2s1 (stereo not drawn) [Compound N-0385, Ms-QFR-kbt]
[1]; females, Figure 5 Panel F, at the Dilution Factor, individual animals
  Average Plaques: 21 and 0 and 7.75
[1]; [8]
  PFU/g: 10500000 PFU/g and 0 PFU/g and 387500 PFU/g
  PFU/mL: 2100000 PFU/mL and 0 PFU/mL and 77500 PFU/mL
[1]; intranasal once daily day −1 to day 2, 14 dpi
  infectious virus in the lung at the study end-point: No infectious virus was detected
[1]; mouse, in vivo
  PFU/mL: 0 PFU/mL
  reduction of lung viral titres (plaque assay) at 3 dpi: 97%
[2]; log [C] (nM) 0.20412
  infection, dose response Figure 3c (nucleocapsid): 100 and 81.7088 and 65.1564
  infection, dose response Figure 3d (dsRNA): 75.4607 and 65.7035 and 100 and 82.6067
[2]; log [C] (nM) 3
  infection, dose response Figure 3d (dsRNA): 8.633
[2]; log [C] (nM) -0.49485
  infection, dose response Figure 3c (nucleocapsid): 100 and 84.3433
  infection, dose response Figure 3d (dsRNA): 100 and 92.9624 and 97.3601
[2]; log [C] (nM) -1.19382
  infection, dose response Figure 3c (nucleocapsid): 91.5649 and 100 and 99.1769
  infection, dose response Figure 3d (dsRNA): 98.3176 and 96.7175 and 100 and 97.435
[3]; Females
  PFU/g: 30000000 PFU/g and 0 PFU/g and 275000 PFU/g and 1000 PFU/g
  PFU/mL: 6000000 PFU/mL and 0 PFU/mL and 55000 PFU/mL and 200 PFU/mL
[3]; Males
  PFU/g: 275000 PFU/g and 32500 PFU/g and 1750 PFU/g and 0 PFU/g
  PFU/mL: 55000 PFU/mL and 6500 PFU/mL and 350 PFU/mL and 0 PFU/mL
[3]; mouse, in vivo
  reduction in lung viral titres at 3 dpi: more than 50%
[4]; N-0385: surviving mice, day 14
  Brain lesions (H&E): absent
[4]; individual mice, most severely affected vessel
  Perivascular infiltrates in CNS score: 0 and 1
[4]; [9]
  Alveolar cells score: 2 ((2) 10–25% affected) and 1 ((1) <10% affected) and 0
  Alveolar edema score: 0
  Alveolar fibrin score: 0
  Fibrosis score: 2 ((2) 10–25% affected) and 1 ((1) <10% affected) and 0
  Interstitial infiltrates in lung score: 2 ((2) 10–25% affected) and 1 ((1) <10% affected) and 0
  Lymphoid hyperplasia score: 1 ((1) <10% affected) and 0
  Perivascular infiltrate in lung score: 3 ((3) 26–50% affected) and 1 ((1) <10% affected) and 0
  Type II pneumocyte hyperplasia score: 2 ((2) 10–25% affected) and 1 ((1) <10% affected) and 0 and 3 ((3) 26–50% affected)
[5]; log [C] (nM) 0.20412
  infection, dose response Figure 3c (nucleocapsid): 79.6793 and 91.7767 and 88.3707 and 72.9139 and 58.6745
  infection, dose response Figure 3d (dsRNA): 63.8002 and 67.3054 and 60.7262 and 87.9301 and 97.1304
[5]; log [C] (nM) 0.90309
  infection, dose response Figure 3c (nucleocapsid): 43.2222 and 77.2087 and 78.2089 and 72.2128 and 63.0729
  infection, dose response Figure 3d (dsRNA): 54.6567 and 62.1742 and 66.7756 and 99.2713 and 89.1898
[5]; log [C] (nM) 1.60206
  infection, dose response Figure 3c (nucleocapsid): 26.0524 and 35.9809 and 32.5888 and 37.5917 and 24.568
  infection, dose response Figure 3d (dsRNA): 39.7311 and 51.7136 and 44.1381 and 59.5864 and 41.1574
[5]; log [C] (nM) -0.49485
  infection, dose response Figure 3c (nucleocapsid): 80.9236 and 100 and 89.9432 and 52.6441
  infection, dose response Figure 3d (dsRNA): 76.5319 and 75.7767 and 69.4582 and 92.7897 and 93.6397
[5]; log [C] (nM) -1.19382
  infection, dose response Figure 3c (nucleocapsid): 96.6594 and 91.8391 and 98.1873 and 70.3455
  infection, dose response Figure 3d (dsRNA): 75.3943 and 74.8717 and 100 and 96.2799
[6]; Severe acute respiratory syndrome coronavirus 2, read-out: inhibition of SARS-CoV-2 infection in colonoids
  inhibition at 0.1 µM: > 99%
[6]
  inhibition of SARS-CoV-2 infection in colonoids: complete inhibition
[7]; IHC sections
  Alveolar cells score: 0 and 1 ((1) <10% affected)
  Interstitial infiltrates in lung score: 1 ((1) <10% affected) and 2 ((2) 10–25% affected)
  Perivascular infiltrate in lung score: 1 ((1) <10% affected) and 2 ((2) 10–25% affected) and 0 and 3 ((3) 26–50% affected)
  Type II pneumocyte hyperplasia score: 0 and 2 ((2) 10–25% affected) and 1 ((1) <10% affected)
[7]; sum of scores
  Total Score (lung pathology): 2 and 6 and 3 and 1 and 7
